Assay results published in patent US11407979B2, “Intermittent starvation techniques to prolong functional lifetime of liver cells in culture” (Colorado State University Research Foundation, priority 2017, dated 2022).

How the values were obtained:
[1] = test system: primary human hepatocytes in micropatterned co-cultures (MPCCs); assay: Hepatocyte island area (phase contrast) and polarization (CDCFDA bile canaliculi staining) in MPCCs; assay type: cell-based; details: metformin treated versus non-starved control MPCCs
[2] = test system: 3T3-J2 fibroblasts; assay: Fibroblast density in MPCCs, live cell imaging of nuclei (Hoechst 33342); assay type: cell-based, murine; details: metformin treated MPCCs, 4 weeks of culture
[3] = test system: primary human hepatocytes in micropatterned co-cultures (MPCCs)

Compound	TC50 values for albumin production, non-starved cells compared with starved cells [3]	TC50 values for urea production, non-starved cells compared with starved cells [3]	identified as toxic (albumin or urea below 50% of DMSO control) [3]	other results
CN(C)C(=N)N=C(N)N [metformin]				hepatocyte island area [1]: not significantly higher; hepatocyte polarization [1]: not significantly higher; fibroblast numbers [2]: did not change
CN1C(C(=O)Nc2ccccn2)=C(O)c2ccccc2S1(=O)=O [piroxicam]	similar	similar		
Clc1ccc(COC(Cn2ccnc2)c2ccc(Cl)cc2Cl)c(Cl)c1 (stereo not drawn) [miconazole]			toxic	
C[C@]12C=CC(=O)C=C1CC[C@@H]1[C@@H]2C(=O)C[C@@]2(C)[C@H]1CC[C@]2(O)C(=O)CO [prednisone]			toxic	
Cc1c(C)c2c(c(C)c1O)CCC(C)(COc1ccc(CC3SC(=O)NC3=O)cc1)O2 (stereo not drawn) [troglitazone]	similar	similar		
